# Data reported in patent US20080171737A1 (Wyeth, priority 2006, published 2008).
# Where a name gives a salt, the structure may show the parent alone.
# Biological target: T1, human hNET (Homo sapiens, UniProt P23975)
# T1 construct: expressed in transfected cells; host or cells: MDCK-Net6 (MDCK cells stably transfected with hNET)
# Test: Functional norepinephrine reuptake assay, Procedure B (6,000 cells/well)
# Assay type: cell-based
# Conditions: MDCK-Net6 cells, 6,000 cells/well, 16 nM 3H-norepinephrine; read-out: Procedure B hNET uptake IC50
# Procedure: For screening, 25 μl aliquots of compound solution at a 1 μM or 10 μM final concentration was delivered directly to cells.
# For IC50 determinations, stock compounds were prepared at 10 mM from powder. The stock solution was diluted according to compound testing range. […] On the day of assay, 25 μl of compound solution at the specified concentrations were added to the plates containing cells. A DMSO stock of desipramine was prepared at 10 mM in DMSO and diluted for a final concentration of 20 μM to determine the non-specific reuptake.
# MDCK-Net6 cells, stably transfected with human hNET (Pacholczyk, 1991), were maintained in growth media [high glucose DMEM (Gibco Cat. 11995), 10% FBS (dialyzed, heat-inactivated, Sigma, dialysed, heat inactivated, Lot# K0922 or equivalent) 1xPen/Strep, and 500 μg/ml G418 (Gibco Cat. 10131)]. Cells were plated at 300,000/T75 flask and cells split twice weekly.
# Cells were plated at 50,000 cells/well (Procedure A) or 6,000 cells/well (Procedure B) on day 1 in BD Falcon Microtest 96-well sterile cell culture plates, Optilux White/Clear Bottom TC plate (VWR; # 62406-466 or equivalent) in growth media and maintained in a cell incubator (37° C., 5% CO2). On Day 2, cells were removed from the cell incubator and the growth media is replaced by 200 μl of assay buffer (25 mm HEPES 120 mM NaCL; 5 mM KCl; 2.5 mM CaCl2; 1.2 mM MgSO4; 2 mg/ml glucose (pH 7.4, 37° C.)) containing 0.2 mg/ml ascorbic acid and 1 μM parglyine. For screening, 25 μl of compound in 4% DMSO was added directly to each well and the plate was incubated for 5 minutes (37° C.). […] The reaction is aspirated from the plate and the cells washed with 250 μl of 50 mM Tris Buffer (4° C.). The plates were left to dry for 1 hour. The cells were lysed using 0.25 M NaOH solution then placed on a shake table and vigorously shaken for 10 minutes. After cell lysis, 100 μl of Microscint 20 (PerkinElmer; #87-051101) was added to the plates and the plates were sealed with film tape and replaced on the shake table for a minimum of 10 minutes. The plates were counted in a TopCount counter (PerkinElmer).
# % inhibition=[1−((mean cpm test compound wells−mean cpm non-specific wells)/(mean cpm control wells−mean cpm non-specific wells))]×100
# For IC50 determination, raw cpm values were generated in a data file from the TopCount counter. The data was organized using the Microsoft Excel and transferred into PRIZM graphing and statistical program, which calculated the estimated IC50 value. Calculation of IC50 values was made using non-linear regression analysis with a sigmoidal dose response with variable slope. The statistical program used wells containing ^3H norepinephrine only as the maximal NE reuptake determinant and wells containing ^3H norepinephrine plus 20 μM desipramine (AHR-9543) as the minimal NE reuptake determinant (non-specific determinant). Estimation of the IC50 value was completed on a log scale and the line was fit between the maximal and minimal NE reuptake values.
# T1 sequence (P23975 whole entry): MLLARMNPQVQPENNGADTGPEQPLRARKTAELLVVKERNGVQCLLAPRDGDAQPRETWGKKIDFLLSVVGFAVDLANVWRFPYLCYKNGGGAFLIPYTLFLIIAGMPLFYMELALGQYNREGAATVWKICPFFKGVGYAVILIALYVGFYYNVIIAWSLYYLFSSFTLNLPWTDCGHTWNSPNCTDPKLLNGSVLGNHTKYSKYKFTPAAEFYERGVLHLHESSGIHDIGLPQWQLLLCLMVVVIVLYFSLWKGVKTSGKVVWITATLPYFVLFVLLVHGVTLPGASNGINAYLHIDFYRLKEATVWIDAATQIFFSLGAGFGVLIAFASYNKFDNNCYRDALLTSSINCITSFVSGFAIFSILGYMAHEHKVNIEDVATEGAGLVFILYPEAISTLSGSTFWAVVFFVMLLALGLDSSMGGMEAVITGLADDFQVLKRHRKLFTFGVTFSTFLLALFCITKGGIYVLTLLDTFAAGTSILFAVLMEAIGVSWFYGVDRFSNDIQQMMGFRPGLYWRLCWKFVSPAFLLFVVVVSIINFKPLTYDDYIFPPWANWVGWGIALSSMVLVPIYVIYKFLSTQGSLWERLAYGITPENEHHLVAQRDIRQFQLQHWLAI
row,IC50 [nM],SMILES
1,875,"CNCCCC1Oc2ccc(F)cc2N(c2ccccc2)S1(=O)=O (stereo not shown) [Example 44, 3-(7-fluoro-2,2-dioxido-1-phenyl-1H-4,2,1-benzoxathiazin-3-yl)-N-methylpropan-1-amine]"
2,187,"CNCCCC1Oc2ccc(Cl)cc2N(c2ccccc2)S1(=O)=O (stereo not shown) [Example 53, 3-(7-chloro-2,2-dioxido-1-phenyl-1H-4,2,1-benzoxathiazin-3-yl)-N-methylpropan-1-amine]"
3,34,"CNCCC[C@@H]1Cc2cc(F)ccc2N(c2cccc(F)c2F)S1(=O)=O (single isomer, unassigned) [Example 147]"
4,66,"CNCCC[C@H]1Cc2cc(F)ccc2N(c2cccc(F)c2F)S1(=O)=O (single isomer, unassigned) [Example 146]"
5,22,"CNCCC[C@@H]1Oc2ccccc2N(c2ccccc2F)S1(=O)=O (single isomer, unassigned) [Example 94]"
6,97,"CNCCC[C@H]1Oc2cc(F)ccc2N(c2ccccc2)S1(=O)=O (single isomer, unassigned) [Example 106]"
7,343,"CNCCC[C@H]1Cc2ccccc2N(c2ccc(F)cc2F)S1(=O)=O (single isomer, unassigned) [Example 100]"
8,42,"CNCCCC1Cc2cc(Cl)ccc2N(c2ccccc2F)S1(=O)=O (stereo not shown) [Example 175, 3-[6-chloro-1-(2-fluorophenyl)-2,2-dioxido-3,4-dihydro-1H-2,1-benzothiazin-3-yl]-N-methylpropan-1-amine]"
9,3.7,"CNCCC[C@@H]1Cc2ccccc2N(c2ccccc2F)S1(=O)=O (single isomer, unassigned) [Example 75]"

# More lines, now with the values behind:
row,SMILES,IC50 [nM]
1,"CCNCC1Oc2ccccc2N(c2ccccc2)S1(=O)=O (stereo not shown) [Example 136, N-[(2,2-dioxido-1-phenyl-1H-4,2,1-benzoxathiazin-3-yl)methyl]ethanamine]",1360
2,"CCCNCCCC1Oc2ccccc2N(c2ccccc2)S1(=O)=O (stereo not shown) [Example 35, 3-(2,2-dioxido-1-phenyl-1H-4,2,1-benzoxathiazin-3-yl)-N-propylpropan-1-amine]",5100
3,"CCNCCCC1Oc2ccccc2N(c2ccccc2)S1(=O)=O (stereo not shown) [Example 34, 3-(2,2-dioxido-1-phenyl-1H-4,2,1-benzoxathiazin-3-yl)-N-ethylpropan-1-amine]",2580
4,"CC1CN(CC2Oc3ccccc3N(c3ccccc3)S2(=O)=O)CC(C)N1 (stereo not shown) [Example 142, 3-[(3,5-dimethylpiperazin-1-yl)methyl]-1-phenyl-1H-4,2,1-benzoxathiazine 2,2-dioxide]",1150
5,"NCCC1Oc2ccccc2N(c2ccccc2)S1(=O)=O (stereo not shown) [Example 24, 2-(2,2-dioxido-1-phenyl-1H-4,2,1-benzoxathiazin-3-yl)ethanamine]",583

# Same assay, conditions: MDCK-Net6 cells, 6,000 cells/well; Conc 6000 nM (6 μM); hydrochloride
row,Procedure B hNET uptake (% inhibition) [%],SMILES
1,35,"CN1CCN(CCC2Oc3ccccc3N(c3ccccc3)S2(=O)=O)CC1 (stereo not shown) [Example 87, 3-[2-(4-Methyl-piperazin-1-yl)-ethyl]-1-phenyl-1H-benzo[1,3,4]oxathiazine 2,2-dioxide hydrochloride]"

# Same assay, conditions: MDCK-Net6 cells, 6,000 cells/well; Conc 6000 nM (6 μM); read-out: Procedure B hNET uptake (% inhibition)
row,inhibition at 6 µM [%],SMILES
1,35,"CNCCCC1Cc2ccccc2N(c2ccncc2)S1(=O)=O (racemic) [Example 133, 3-(2,2-dioxido-1-pyridin-4-yl-3,4-dihydro-1H-2,1-benzothiazin-3-yl)-N-methylpropan-1-amine]"
2,58,"CNCCCC1Sc2ccccc2N(c2ccc(OC)cc2)S1(=O)=O (stereo not shown) [Example 65, 3-[1-(4-methoxyphenyl)-2,2-dioxido-1H-2,4,1-benzodithiazin-3-yl]-N-methylpropan-1-amine hydrochloride]"

# The next lines start with the compound.
row,SMILES,inhibition at 6 µM [%]
1,"O=S1(=O)C(CCNC2CCC2)Oc2ccccc2N1c1ccccc1 (stereo not shown) [Example 32, N-[2-(2,2-dioxido-1-phenyl-1H-4,2,1-benzoxathiazin-3-yl)ethyl]cyclobutanamine]",54
2,"O=S1(=O)C(CCN2CCCCC2)Oc2ccccc2N1c1ccccc1 (stereo not shown) [Example 78, 1-phenyl-3-(2-piperidin-1-ylethyl)-1H-4,2,1-benzoxathiazine 2,2-dioxide hydrochloride]",45
